Measured values reported in patent publication US20160355483A1, “COMPOUND BINDING TO PPARG BUT NOT ACTING AS PROMOTER AND PHARMACEUTICAL COMPOSITION FOR TREATING PPARG-RELATED DISEASES CONTAINING SAME AS ACTIVE INGREDIENT” (Hyundai Pharm Co., Ltd., priority 2014, published 2016).

Target: T1, PPARG (peroxisome proliferator activated receptor-gamma), GST-PPARG-LBD (Homo sapiens, UniProt P37231)
T1 construct: 15 μL of 5 nM GST-PPARG-LBD and 5 nM Tb-GST-antibody were added; purchased Invitrogen PV4894
T1 sequence (P37231 238-503 limits assumed): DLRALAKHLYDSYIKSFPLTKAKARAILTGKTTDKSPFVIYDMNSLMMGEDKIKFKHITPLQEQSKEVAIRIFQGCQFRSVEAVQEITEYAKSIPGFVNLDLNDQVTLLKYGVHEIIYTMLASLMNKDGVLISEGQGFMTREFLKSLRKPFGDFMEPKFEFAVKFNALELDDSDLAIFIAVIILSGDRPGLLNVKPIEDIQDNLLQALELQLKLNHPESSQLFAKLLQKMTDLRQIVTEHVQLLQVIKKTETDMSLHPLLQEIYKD
Assay: LanthaScreen TR-FRET PPARG Competitive Binding Assay
Parameters: key: “+” indicates the degree of the binding activity, and as the number of “+” increases, the binding activity is stronger; ++: “+” indicates the degree of the binding activity, and as the number of “+” increases, the binding activity is stronger; +++: “+” indicates the degree of the binding activity, and as the number of “+” increases, the binding activity is stronger; ++++: “+” indicates the degree of the binding activity, and as the number of “+” increases, the binding activity is stronger
Settings: degree of binding activity
Experimental: The following experiment was performed to evaluate the PPARG (peroxisome proliferator activated receptor-gamma) binding capacity and transcriptional activity of the compounds prepared in the examples of the invention. For the experiment, LanthaScreen™ TR-FRET PPARG Competitive Binding Assay Kit (PV4894, Invitrogen) was used according to the manufacturer's instruction. […] The mixture was loaded in a 384-well plate (Greiner, 784075) by 20 μL per well, followed by reaction at room temperature for 1 hour. Upon completion of the reaction, fluorescence value was measured by using Flexstation 3 (Molecular Devices) with time-resolved fluorescence (RFU) mode (excitation 1: 340 nm, emission 1: 518 nm, excitation 2: 340 nm, emission 2: 488 nm, integration delay 50 μs, integration 400 μs). The results were calculated by using 518 nm RFUs/488 nm RFUs ratio. The activity of the compounds of the invention was compared with that of the vehicle, which was calculated by ratio according to the formula [100%−compound of the example ratio/vehicle ratio]. At this time, the binding activity ratio to rosiglitazone was compared.

| Binding assay (1 μLM) | SMILES |
| --- | --- |
| +++ | C[C@H](NC(=O)c1ccc2c(c1)CCCN2Cc1ccc(-c2ccccc2C(=O)O)cc1)c1ccccc1 [Example 1, (S)-4′-((6-((1-phenylethyl)carbamoyl)-3,4-dihydroquinoline-1(2H)-yl)methyl)-[1,1′-biphenyl]-2-carboxylic acid] |
| +++ | C[C@H](NC(=O)c1ccc2c(c1)CCCN2Cc1ccc(-c2ccccc2C(N)=O)cc1)c1ccccc1 [Example 2, (S)-1-((2′-carbamoyl-[1,1′-biphenyl]-4-yl)methyl)-N-(1-phenylethyl)-1,2,3,4-tetrahydroquinoline-6-carboxamide] |
| + | C[C@H](NC(=O)c1ccc2c(c1)CCCN2Cc1ccc(-c2ccccc2C(=O)O)cc1)c1ccc([N+](=O)[O-])cc1 [Example 3, (S)-4′-((6-((1-(4-nitrophenyl)ethyl)carbamoyl)-3,4-dihydroquinoline-1(2H)-yl)methyl)-[1,1′-biphenyl]-2-caboxylic acid] |
| +++ | Cc1cc(F)ccc1[C@H](C)NC(=O)c1ccc2c(c1)CCCN2Cc1ccc(-c2ccccc2C(=O)O)cc1 [Example 4, (S)-4′-((6-((1-(4-fluoro-2-methylphenyl)ethyl)carbamoyl)-3,4-dihydroquinoline-1(2H)-yl)methyl)-[1,1′-biphenyl]-2-carboxylic acid] |
| ++ | Cc1ccc([C@H](C)NC(=O)c2ccc3c(c2)CCCN3Cc2ccc(-c3ccccc3C(=O)O)cc2)cc1F [Example 5, (S)-4′-((6-((1-(3-fluoro-4-methylphenyl)ethyl)carbamoyl)-3,4-dihydroquinoline-1(2H)-yl)methyl)-[1,1′-biphenyl]-2-caboxylic acid] |
| +++ | C[C@H](NC(=O)c1ccc2c(c1)CCCN2Cc1ccc(-c2ccccc2C(=O)O)cc1)c1ccc(F)cc1 [Example 6, (S)-4′-((6-((1-(4-fluorophenyl)ethyl)carbamoyl)-3,4-dihydroquinoline-1(2H)-yl)methyl)-[1,1′-biphenyl]-2-caboxylic acid] |
| ++++ | C[C@H](NC(=O)c1ccc2c(c1)CCCN2Cc1ccc(-c2ccccc2C(=O)O)cc1)c1ccc(Br)cc1 [Example 7, (S)-4′-((6-((1-(4-bromophenyl)ethyl)carbamoyl)-3,4-dihydroquinoline-1(2H)-yl)methyl)-[1,1′-biphenyl]-2-caboxylic acid] |
| +++ | O=C(NCc1ccc([N+](=O)[O-])cc1)c1ccc2c(c1)CCCN2Cc1ccc(-c2ccccc2C(=O)O)cc1 [Example 8, 4′-((6-((4-nitrobenzyl)carbamoyl)-3,4-dihydroquinoline-1(2H)-yl)methyl)-[1,1′-biphenyl]-2-carboxylic acid] |
| ++++ | C[C@H](NC(=O)c1ccc2c(c1)CCCN2Cc1ccc(-c2ccccc2C(=O)O)cc1)c1cccc(Cl)c1 [Example 9, (S)-4′-((6-((1-(3-chlorophenyl)ethyl)carbamoyl)-3,4-dihydroquinoline-1(2H)-yl)methyl)-[1,1′-biphenyl]-2-caboxylic acid] |
| +++ | C[C@H](NC(=O)c1ccc2c(c1)CCCN2Cc1ccc(-c2ccccc2C(=O)O)cc1)c1cccc2ccccc12 [Example 10, (S)-4′-((6-((1-(naphthalene-1-yl)ethyl)carbamoyl)-3,4-dihydroquinoline-1(2H)-yl)methyl)-[1,1′-biphenyl]-2-carboxylic acid] |
| ++++ | C[C@H](NC(=O)c1ccc2c(c1)CCCN2Cc1ccc(-c2ccccc2C(=O)O)cc1)c1ccc(OC(F)(F)F)cc1 [Example 11, (s)-4′-((6-((1-(4-(trifluoromethoxy)phenyl)ethyl)carbamoyl)-3,4-dihydroquinoline-1(2H)-yl)methyl)-[1,1′-biphenyl]-2-carboxylic acid] |
| ++++ | C[C@H](NC(=O)c1ccc2c(c1)CCCN2Cc1ccc(-c2ccccc2C(=O)O)cc1)c1ccc(C(F)(F)F)cc1 [Example 12, (S)-4′-((6-((1-(4-(trifluoromethyl)phenyl)ethyl)carbamoyl)-3,4-dihydroquinoline-1(2H)-yl)methyl)-[1,1′-biphenyl]-2-carboxylic acid] |
| ++++ | C[C@H](NC(=O)c1ccc2c(c1)CCCN2Cc1ccc(-c2ccccc2C(=O)O)cc1)c1ccc(SC(F)(F)F)cc1 [Example 13, (S)-4′-((6-((1-(4-((trifluoromethyl)thio)phenyl)ethyl)carbamoyl)-3,4-dihydroquinoline-1 (2H)-yl)methyl)-[1,1′-biphenyl]-2-carboxylic acid] |
| + | O=C(NC1COc2ccccc2C1)c1ccc2c(c1)CCCN2Cc1ccc(-c2ccccc2C(=O)O)cc1 (stereo not shown) [Example 15, 4′-((6-(cromene-3-ylcarbamoyl)-3,4-dihydroquinoline-1(2H)-yl)methyl)-[1,1′-biphenyl]-2-carboxylic acid] |
| +++ | C[C@H](NC(=O)c1ccc2c(c1)CCCN2Cc1ccc(-c2ccccc2C(=O)O)cc1)c1c(F)cccc1F [Example 16, (S)-4′-((6-((1-(2,6-fluorophenyl)ethyl)carbamoyl)-3,4-dihydroquinoline-1 (2H)-yl)methyl)-[1,1′-biphenyl]-2-carboxylic acid] |
| +++ | C[C@H](NC(=O)c1ccc2c(c1)CCCN2Cc1ccc(-c2ccccc2C(=O)O)cc1)c1cccc(F)c1 [Example 17, (S)-4′-((6-((1-(3-fluorophenyl)ethyl)carbamoyl)-3,4-dihydroquinoline-1(2H)-yl)methyl)-[1,1′-biphenyl]-2-caboxylic acid] |
| +++ | C[C@H](NC(=O)c1ccc2c(c1)CCCN2Cc1ccc(-c2ccccc2C(=O)O)cc1)c1cccc(OC(F)(F)F)c1 [Example 18, (S)-4′-((6-((1-(3-(trifluoromethoxy)phenyl)ethyl)carbamoyl)-3,4-dihydroquinoline-1(2H)-yl)methyl)-[1,1′-biphenyl]-2-carboxylic acid] |
| +++ | C[C@H](NC(=O)c1ccc2c(c1)CCCN2Cc1ccc(-c2ccccc2C(=O)O)cc1)c1cccc(C(F)(F)F)c1 [Example 19, (S)-4′-((6-((1-(3-(trifluoromethyl)phenyl)ethyl)carbamoyl)-3,4-dihydroquinoline-1(2H)-yl)methyl)-[1,1′-biphenyl]-2-carboxylic acid] |
| ++++ | C[C@H](NC(=O)c1ccc2c(c1)CCCN2Cc1ccc(-c2ccccc2C(=O)O)cc1)c1ccc2ccccc2c1 [Example 20, (S)-4′-((6-((1-(naphthalene-2-yl)ethyl)carbamoyl)-3,4-dihydroquinoline-1(2H)-yl)methyl)-[1,1′-biphenyl]-2-carboxylic acid] |
| +++ | C[C@H](NC(=O)c1ccc2c(c1)CCCN2Cc1ccc(-c2ccccc2C(=O)O)cc1)c1ccc(F)c(F)c1 [Example 21, (S)-4′-((6-((1-(3,4-fluorophenyl)ethyl)carbamoyl)-3,4-dihydroquinoline-1 (2H)-yl)methyl)-[1,1′-biphenyl]-2-carboxylic acid] |
| +++ | COc1cccc([C@H](C)NC(=O)c2ccc3c(c2)CCCN3Cc2ccc(-c3ccccc3C(=O)O)cc2)c1 [Example 22, (S)-4′-((6-((1-(3-methoxyphenyl)ethyl)carbamoyl)-3,4-dihydroquinoline-1(2H)-yl)methyl)-[1,1′-biphenyl]-2-caboxylic acid] |
| +++ | COc1ccccc1[C@H](C)NC(=O)c1ccc2c(c1)CCCN2Cc1ccc(-c2ccccc2C(=O)O)cc1 [Example 23, (S)-4′-((6-((1-(2-methoxyphenyl)ethyl)carbamoyl)-3,4-dihydroquinoline-1(2H)-yl)methyl)-[1,1′-biphenyl]-2-carboxylic acid] |
| +++ | C[C@H](NC(=O)c1ccc2c(c1)CCCN2Cc1ccc(-c2ccccc2C(=O)O)cc1)c1ccccc1F [Example 24, (S)-4′-((6-((1-(2-fluorophenyl)ethyl)carbamoyl)-3,4-dihydroquinoline-1(2H)-yl)methyl)-[1,1′-biphenyl]-2-caboxylic acid] |
| +++ | C[C@H](NC(=O)c1ccc2c(c1)CCCN2Cc1ccc(-c2ccccc2C(=O)O)cc1)c1ccccc1C(F)(F)F [Example 25, (S)-4′-((6-((1-(2-(trifluoromethyl)phenyl)ethyl)carbamoyl)-3,4-dihydroquinoline-1(2)-yl)methyl)-[1,1′-biphenyl]-2-carboxylic acid] |
| ++ | O=C(NCc1ccccn1)c1ccc2c(c1)CCCN2Cc1ccc(-c2ccccc2C(=O)O)cc1 [Example 26, 4′-((6-((pyridine-2-ylmethyl)carbamoyl)-3,4-dihydroquinoline-1(2H)-yl)methyl)-[1,1′-biphenyl]-2-carboxylic acid] |
